Read-outs that look alike come from different tables or passages of the source.
Tests used:
MAGL [1] = molecular target: MAGL (Homo sapiens (Human), UniProt Q99685); experiment: In vitro competitive activity-based protein profiling (gel-based, FP-Rh or HT-01 probe); format: biochemical; settings: for IC50: read-out: MAGL Human PC3 (IC50)
Method: In Vitro Competitive Activity-Based Protein Profiling.
Proteomes (human prefrontal cortex or cell membrane fractions) (50 μL, 1.0 mg/mL total protein concentration) were preincubated with varying concentrations of inhibitors at 37° C. After 30 min, FP-Rh or HT-01 (1.0 μL, 50 μM in DMSO) was added and the mixture was incubated for another 30 min at room temperature. Reactions were quenched with SDS loading buffer (15 μL—4×) and run on SDS-PAGE.

MAGL [2] = molecular target: T1, MAGL (Mus musculus (Mouse), UniProt O35678); experiment: Mouse brain proteomes from inhibitor treated mice (oral gavage, brain MAGL activity 4 h after administration); format: in vivo; settings: 5 mg/kg oral gavage
Method: Preparation of Mouse Brain Proteomes from Inhibitor Treated Mice.
Inhibitors were administered to wild-type C57B1/6J by oral gavage in a vehicle of polyethylene glycol.

MAGL [3] = molecular target: T1, MAGL; experiment: In vitro competitive activity-based protein profiling, mouse brain proteome; format: biochemical; settings: for inhibition at 1 µM: mouse; for IC50: mouse brain
[4] = human PC3, read-out: MAGL % Inhibition at 1 μM (human PC3)
[5] = human PFC (prefrontal cortex), read-out: MAGL % Inhibition at 1 μM (human PFC)

T1 sequence (O35678 whole entry): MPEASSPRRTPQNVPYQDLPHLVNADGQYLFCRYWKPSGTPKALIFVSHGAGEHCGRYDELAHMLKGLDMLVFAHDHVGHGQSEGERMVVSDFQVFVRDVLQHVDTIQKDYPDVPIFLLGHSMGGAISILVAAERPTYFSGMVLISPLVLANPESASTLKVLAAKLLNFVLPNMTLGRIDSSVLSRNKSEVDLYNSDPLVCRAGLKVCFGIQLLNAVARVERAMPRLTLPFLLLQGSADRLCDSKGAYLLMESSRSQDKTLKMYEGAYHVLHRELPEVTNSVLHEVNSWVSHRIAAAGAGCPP
Chain of MAGL (Homo sapiens (Human), UniProt Q99685) (Q99685 whole entry): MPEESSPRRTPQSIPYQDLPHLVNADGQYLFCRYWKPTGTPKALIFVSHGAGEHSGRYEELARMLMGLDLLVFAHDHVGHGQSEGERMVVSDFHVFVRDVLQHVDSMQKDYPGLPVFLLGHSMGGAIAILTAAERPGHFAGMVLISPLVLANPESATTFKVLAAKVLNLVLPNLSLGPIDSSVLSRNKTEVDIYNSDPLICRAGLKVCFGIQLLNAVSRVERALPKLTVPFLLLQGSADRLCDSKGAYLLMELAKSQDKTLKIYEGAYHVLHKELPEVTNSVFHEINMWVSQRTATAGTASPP

SMILES	IC50 (MAGL [1]; human PC3) [nM]	MAGL % Inhibition at 5 mg/kg (Mouse) (MAGL [2])	inhibition at 1 µM (MAGL [3]) [%]	IC50 (MAGL [3]) [nM]	inhibition at 1 µM (MAGL [1]; [4]) [%]	inhibition at 1 µM (MAGL [1]; [5]) [%]
O=C(OC(C(F)(F)F)C(F)(F)F)N1CCC2(CCCN2Cc2cnc(N3CCCC3)s2)CC1 [Example 226, 1,1,1,3,3,3-Hexafluoropropan-2-yl 1-((2-(pyrrolidin-1-yl)thiazol-5-yl)methyl)-1,8-diazaspiro[4.5]decane-8-carboxylate]	< 100	### (% inhibition is greater than or equal to 75%)	> 75	< 100	–	–
CC1(NC(=O)c2cn3c(n2)CN(C(=O)C(C)(C)C)CC3)CCN(C(=O)OC(C(F)(F)F)C(F)(F)F)CC1 [Example 191, 1,1,1,3,3,3-Hexafluoropropan-2-yl 4-methyl-4-(7-pivaloyl-5,6,7,8-tetrahydroimidazo[1,2-a]pyrazine-2-carboxamido) piperidine-1-carboxylate]	< 100	# (% inhibition less or equal to 25%)	> 75	–	> 75	–
CC1(NC(=O)c2nnc3n2CCN(C2CCOCC2)C3)CCN(C(=O)OC(C(F)(F)F)C(F)(F)F)CC1 [Example 209, 1,1,1,3,3,3-Hexafluoropropan-2-yl 4-methyl-4-(7-(tetrahydro-2H-pyran-4-yl)-5,6,7,8-tetrahydro-[1,2,4]triazolo [4,3-a]pyrazine-3-carboxamido) piperidine-1-carboxylate]	< 100	### (% inhibition is greater than or equal to 75%)	> 75	–	> 75	> 75
O=C(OC(C(F)(F)F)C(F)(F)F)N1CCC2(CCCN2Cc2cc(-c3ccc(F)cc3)on2)CC1 [Example 39, 1,1,1,3,3,3-Hexafluoropropan-2-yl 1-((5-(4-fluorophenyl)isoxazol-3-yl)methyl)-1,8-diazaspiro[4.5]decane-8-carboxylate]	< 100	### (% inhibition is greater than or equal to 75%)	> 75	< 100	–	–
CN(C(=O)c1cn2c(n1)CN(C1CC1)CC2)C1(C)CCN(C(=O)OC(C(F)(F)F)C(F)(F)F)CC1 [Example 18, 1,1,1,3,3,3-Hexafluoropropan-2-yl 4-(7-cyclopropyl-N-methyl-5,6,7,8-tetrahydroimidazo[1,2-a]pyrazine-2-carboxamido)-4-methylpiperidine-1-carboxylate]	< 100	### (% inhibition is greater than or equal to 75%)	> 75	< 100	> 75	> 75
O=C(O)C1CCN(c2nc(C(F)(F)F)ccc2CN2CCCC23CCN(C(=O)OC(C(F)(F)F)C(F)(F)F)CC3)CC1 [Example 123, 1-(3-((8-(((1,1,1,3,3,3-Hexafluoropropan-2-yl)oxy)carbonyl)-1,8-diazaspiro[4.5]decan-1-yl)methyl)-6-(trifluoromethyl)pyridin-2-yl)piperidine-4-carboxylic acid]	< 100	### (% inhibition is greater than or equal to 75%)	> 75	–	–	> 75
COCC(C)N1CCn2cc(C(=O)N3CCCC34CCN(C(=O)OC(C(F)(F)F)C(F)(F)F)CC4)nc2C1 (stereo not drawn) [Example 169, 1.1,1,3,3,3-Hexafluoropropan-2-yl 1-(7-(1-methoxypropan-2-yl)-5,6,7,8-tetrahydroimidazo [1,2-a]pyrazine-2-carbonyl)-1,8-diazaspiro[4.5] decane-8-carboxylate]	< 100	# (% inhibition less or equal to 25%)	> 75	–	> 75	> 75
O=C(OC(C(F)(F)F)C(F)(F)F)N1CCC2(CCCN2C(=O)c2cn3c(n2)CN(C2COC2)CC3)CC1 [Example 161, 1.1,1,3,3,3-Hexafluoropropan-2-yl 1-(7-(oxetan-3-yl)-5,6,7,8-tetrahydroimidazo [1,2-a]pyrazine-2-carbonyl)-1,8-diazaspiro[4.5] decane-8-carboxylate]	< 100	## (% inhibition is less than 75% and greater than 25%)	> 75	–	> 75	–
O=C(OC(C(F)(F)F)C(F)(F)F)N1CCC2(CCCN2Cc2cnc3ccccn23)CC1 [Example 228, 1,1,1,3,3,3-Hexafluoropropan-2-yl 1-(imidazo [1,2-a]pyridin-3-ylmethyl)-1,8-diazaspiro[4.5]decane-8-carboxylate]	< 100	### (% inhibition is greater than or equal to 75%)	> 75	< 100	–	–
CC1(CN2CCn3cc(C(=O)N4CCCC45CCN(C(=O)OC(C(F)(F)F)C(F)(F)F)CC5)nc3C2)COC1 [Example 170, 1,1,1,3,3,3-Hexafluoropropan-2-yl 1-(7-((3-methyloxetan-3-yl)methyl)-5,6,7,8-tetrahydroimidazo [1,2-a]pyrazine-2-carbonyl)-1,8-diazaspiro[4.5] decane-8-carboxylate]	< 100	# (% inhibition less or equal to 25%)	> 75	–	> 75	> 75
Cc1cc(C)c2[nH]c(C(=O)N3CCCC34CCN(C(=O)OC(C(F)(F)F)C(F)(F)F)CC4)c(C)c2c1 [Example 63, 1,1,1,3,3,3-Hexafluoropropan-2-yl 1-(3,5,7-trimethyl-1H-indole-2-carbonyl)-1,8-diazaspiro[4.5] decane-8-carboxylate]	< 100	### (% inhibition is greater than or equal to 75%)	> 75	< 100	–	–
O=C(OC(C(F)(F)F)C(F)(F)F)N1CCC2(CCCN2Cc2cc3cc(Cl)ccc3s2)CC1 [Example 40, 1,1,1,3,3,3-Hexafluoropropan-2-yl 1-((5-chlorobenzo[b]thiophen-2-yl)methyl)-1,8-diazaspiro[4.5] decane-8-carboxylate]	< 100	### (% inhibition is greater than or equal to 75%)	> 75	< 100	–	–
O=C(OC(C(F)(F)F)C(F)(F)F)N1CCC2(CCCN2C(=O)c2cc3n(n2)CCN(C2CC2)C3)CC1 [Example 155, 1,1,1,3,3,3-Hexafluoropropan-2-yl 1-(5-cyclopropyl-4,5,6,7-tetrahydropyrazolo [1,5-a]pyrazine-2-carbonyl)-1,8-diazaspiro[4.5] decane-8-carboxylate]	< 100	### (% inhibition is greater than or equal to 75%)	> 75	–	> 75	> 75
O=C(OC(C(F)(F)F)C(F)(F)F)N1CCC2(CCCN2C(=O)c2cc3nc(Cl)ccn3n2)CC1 [Example 151, 1,1,1,3,3,3-Hexafluoropropan-2-yl 1-(5-chloropyrazolo[1,5-a]pyrimidine-2-carbonyl)-1,8-diazaspiro[4.5] decane-8-carboxylate]	–	## (% inhibition is less than 75% and greater than 25%)	> 75	–	> 75	> 75
CN(Cc1cc2cc(Cl)ccc2s1)C1(C)CCN(C(=O)OC(C(F)(F)F)C(F)(F)F)CC1 [Example 62, 1,1,1,3,3,3-Hexafluoropropan-2-yl 4-(((5-chlorobenzo[b]thiophen-2-yl)methyl)(methyl)amino)-4-methylpiperidine-1-carboxylate]	< 100	### (% inhibition is greater than or equal to 75%)	> 75	< 100	–	–
CC(C)(O)CN1CCn2c(nnc2C(=O)NC2(C)CCN(C(=O)OC(C(F)(F)F)C(F)(F)F)CC2)C1 [Example 206, 1,1,1,3,3,3-Hexafluoropropan-2-yl 4-(7-(2-hydroxy-2-methylpropyl)-5,6,7,8-tetrahydro-[1,2,4]triazolo[4,3-a]pyrazine-3-carboxamido)-4-methylpiperidine-1-carboxylate]	< 100	### (% inhibition is greater than or equal to 75%)	> 75	–	> 75	> 75
O=C(OC(C(F)(F)F)C(F)(F)F)N1CCC2(CCCN2C(=O)C2(c3ncc(Cl)cn3)CC2)CC1 [Example 31, 1,1,1,3,3,3-Hexafluoropropan-2-yl 1-(1-(5-chloropyrimidin-2-yl)cyclopropane-1-carbonyl)-1,8-diazaspiro[4.5]decane-8-carboxylate]	< 100	### (% inhibition is greater than or equal to 75%)	> 75	–	> 75	> 75
Cc1nc2ccc(Cl)nn2c1C(=O)N1CCCC12CCN(C(=O)OC(C(F)(F)F)C(F)(F)F)CC2 [Example 142, 1,1,1,3,3,3-Hexafluoropropan-2-yl 1-(6-chloro-2-methylimidazo[1,2-b]pyridazine-3-carbonyl)-1,8-diazaspiro[4.5] decane-8-carboxylate]	< 100	### (% inhibition is greater than or equal to 75%)	> 75	–	> 75	> 75
